Source: patent US11324748B2, “Vasodilators for treatment of heart failure” (NORTHEAST OHIO MEDICAL UNIVERSITY, priority 2017, dated 2022)
Structures can show the parent of a compound that is named as a salt.

Assays:
[1] = system: myocardial blood flow in the failing heart; test: Myocardial blood flow by myocardial contrast echocardiography during norepinephrine cardiac stress test in HF mice; format: in vivo; conditions: FIG. 2 right
Method: After the control measurements to establish baseline % EF, mice underwent surgery to constrict the aortic artery. This procedure, termed transaortic constriction (TAC), causes the heart to pump against a high blood pressure, which causes it to fail. […] At the end of the 13th week, mice were either treated with chromonar (as continuous infusion) or a vehicle (that the chromonar was dissolved in).
Myocardial contrast echocardiography (MCE) was used to measure myocardial blood flow in both groups of mice. […] Mice were determined to be in HF when EF<40%). After the development of failure, myocardial blood flow was measured during a cardiac stress test produced by infusion of norepinephrine to increase myocardial metabolic demands. A plot of cardiac work vs MBF was made for the sham mice and for those in HF. To estimate metabolic demands, the index wall stress rate product (WSRP) was developed.

[2] = system: heart failure (HF) induced by transaortic constriction (TAC); test: Transaortic constriction (TAC) heart failure in mice, echocardiography; chromonar or vehicle from end of week 13; format: in vivo
From the text: Ejection fraction is the percentage of blood in the left ventricular chamber that the heart ejects per beat. Under normal conditions, the heart will eject 60-70% of left ventricular volume with each contraction, but the failing heart ejects considerably less. After the control measurements to establish baseline % EF, mice underwent surgery to constrict the aortic artery. This procedure, termed transaortic constriction (TAC), causes the heart to pump against a high blood pressure, which causes it to fail. […] At the end of the 13th week, mice were either treated with chromonar (as continuous infusion) or a vehicle (that the chromonar was dissolved in).
Another way of assessing the effectiveness of a therapy in heart failure is to determine how much volume is in the left ventricle before it begins to contract (termed diastolic volume). When contractile function of the heart declines, this volume progressively increases. This volume is important for a number of reasons. First, it is directly related to energy consumption of the heart (as the volume increases energy consumption is increased). Second, if this volume becomes too large, the heart muscle can be overstretched and will contract even more poorly—this is referred to as decompensated heart failure. Third, as the diastolic volume increases pressures and volumes “upstream” in the atrium and pulmonary vessels will also increase. […]

[3] = system: Takotsubo Syndrome; test: Takotsubo Syndrome produced by TAC, ventricular function, FIG. 11; format: in vivo, mice; conditions: 4 weeks, 2 weeks of treatment
[4] = system: mice with heart failure (HFrEF); test: Treadmill exercise time and whole body oxygen consumption in mice with heart failure, FIG. 9
[5] = system: heart failure induced by TAC (transaortic constriction); conditions: TAC mice, treatment started at week 5; FIG. 7

SMILES	relationship between MBF and cardiac work (WSRP) ([1]; failing heart after chromonar)	myocardial blood flow (MBF) ([1]; failing heart, during changes in cardiac work (WSRP))	cardiac function (ejection fraction, % EF) ([2]; treated at end of 13th week, continuous infusion, FIG. 2 left)	Left Ventricular Diastolic Volume ([2]; treatment at end of week 13, FIG. 3)	ventricular function (EF %) [3]	total exercise time on a treadmill [4]	cardiac function (EF %) [5]	whole body oxygen consumption ([4]; within 5 minutes of exercise)
CCOC(=O)COc1ccc2c(C)c(CCN(CC)CC)c(=O)oc2c1 [chromonar, 14.3-(beta-Diethylaminoethyl)-4-methyl-7-(carbethoxymethoxy)-coumarin hydrochloride]	reconnects the relationship between work and flow in the heart	flow is higher	restored cardiac function—nearly back to the control levels	diastolic volumes decreased	improved ventricular function greatly	~70 min	improved dramatically	–
CC(C)NCC(O)COc1cccc2ccccc12 (stereo not shown) [propranolol]	–	–	–	–	–	about 45 minutes	continued to decrease	lower oxygen consumption than the chromonar treated group
